Reference: patent publication US10968183B2, “Small molecule FIEL1 inhibitor in inflammatory and fibrotic lung injury” (UNIVERSITY OF PITTSBURGH—OF THE COMMONWEALTH SYSTEM OF …, priority 2015, dated 2021)

Key:
KIAA0317 and PIAS4 mRNA = assay: PIAS4 and KIAA0317 mRNA analysis (RT-qPCR); assay type: cell-based; settings: treatment for 18 h; FIG. 15G
Description: FIG. 15A. Diagram of the BC-1485 synthesis process. FIGS. 15B-15C. Docking studies of the lead compound, BC-1485, interacting with the FIEL1-HECT domain. FIG. 15D. MRC5 cells were treated with the compound at various doses; cells were also co-treated with TGFβ at 2 ng/ml. 18 h later, cells were collected and assayed for α-SMA expression. FIG. 15E. MRC5 cells were seeded in 35 mm glass bottom dishes before co-treatment with TGFβ at 2 ng/ml and BC-1480 or BC1485 at 5μM. FIG. 15F. PIAS4 protein half-life determination after BC-1480 or BC1485 treatment at 5μM for 18 h. FIG. 15G. PIAS4 and KIAA0317 mRNA analysis after BC1485 treatment for 18 h.
Total RNA was isolated and reverse transcription was performed followed by real-time quantitative PCR with SYBR Green qPCR mixture as described in Butler et al. J. Biol. Chem. 2010, […]: 6246-6258. All mutant PIAS4 and KIAA0317 plasmid constructs were generated using PCR-based approaches and appropriate primers and subcloned into a pcDNA3.1D/V5-HIS vector.

[1] = system: bleomycin-induced lung injury in C57BL/6J mice; assay: Bleomycin lung fibrosis model in mice; assay type: in vivo; settings: estimated 5 mg/kg/d; for lung (pulmonary) fibrosis: 7-21 days
Description: FIG. 7A. […] FIG. 7B. Structures of the BC-1480 backbone and lead compound BC-1485. FIG. 7C. FIEL1 protein was HIS-purified from FIEL1 expression in 293T cells using cobalt beads. Beads were then extensively washed prior to exposure to BC-1480 or BC-1485 at different concentrations (10^−4 to 100 μM). Purified PIAS4 protein was then incubated with drug-bound FIEL1 beads overnight. Beads were washed, and proteins were eluted and resolved on SDS-PAGE. The relative amounts of PIAS4 detected in the pull-downs was normalized to loading and quantified (n=2). FIG. 7D. MLE cells were exposed to BC-1480 or BC-1485 at various concentrations for 18 h. Cells were then collected and immunoblotted. FIGS. 7E-J. C57BL/6J mice were administered with bleomycin (0.05 U) for 7-21 days. Compounds BC-1480 and BC-1485 were given to mice through drinking water with an estimated dose of 5 mg/kg/d. Mice were euthanized, and lungs were lavaged with saline, harvested, and then homogenized. Lavage proteins, CXCL1, and total cell count were measured in FIGS. 7E-G. H. Survival studies of mice that were given bleomycin and compound treatments. Mice were carefully monitored over time; moribund, preterminal animals were immediately euthanized and recorded as deceased. Kaplan-Meier survival curves were generated using SPSS software (p<0.01 compared to Vehicle). Vehicle: n=24, BC-1480: n=13, BC-1485: n=12. FIG. 7I. Hydroxyproline contents were measured in lungs from 7, 14, and 21d after bleomycin challenge. FIG. 7J. Trichrome staining was performed on lung samples from E. Original magnification, ×10. *p<0.05 compared to Vehicle (t-test). Data are an average of two experiments (FIGS. 7E-J, 4-8 mice/group)
C57BL/6J mice were administered i.t. with bleomycin (0.05 U) for 7-21 days. Compounds BC-1480 and BC-1485 were given to mice through drinking water with an estimated dose of 5 mg/kg/d. Mice were then euthanized, and lungs were lavaged with saline, harvested, and then homogenized. Lavage IL-6 was measured in (FIG. 16A). Lavage cells were also processed for Wright-Giemsa stain; Lavage macrophages, neutrophils and lymphocytes were counted and graphed (FIGS. 16B-16D). H&E staining was performed on lung samples from A. Original magnification, ×10. *p<0.05 compared to Vehicle (t test). Data are an average of two experiments (A-E, 4-8 mice/group).
Murine lungs were dried and weighed prior to digestion with HCl. Hydroxyproline concentrations were measuring using methods previously described in Kesava Reddy et al., Clinical Biochemistry, 29(3): 225-229 (1996), and Neuman et al., J. of Biol. Chem., 184(1): 299-306 (1950). Hydroxyproline content was normalized to dry lung weight.
All procedures were approved by the University of Pittsburgh Institutional Animal Care and Use Committee. For fibrosis studies, male C57BL/6J mice were deeply anesthetized using a ketamine/xylazine mixture, and the larynx was well visualized under a fiber optic light source before endotracheal intubation with a 3/400 24-gauge plastic catheter. 10^7 CFU of lentivirus encoding genes for Empty (E), FIEL1, CON shRNA, or KIAA0317 shRNA was given i.t. for 144 h before administration of bleomycin (0.02 U˜0.05 U i.t.) for up to 21 days. Animals were euthanized and assayed for BAL protein, cell count, cytokines, and lung infiltrates. Survival studies were performed on mice that were given bleomycin (0.02 U˜0.05 U i.t.). Mice were carefully monitored over time; moribund, preterminal animals were immediately euthanized and recorded as deceased. For drug studies, mice were deeply anesthetized as above. Bleomycin (0.05 U i.t.) was given i.t. before BC-1480 or BC-1485 (5 mg/kg/d) was administered to the mice through their drinking water. 7-21d later, animals were euthanized and analyzed as above.

[2] = bleomycin 0.05 U i.t., up to 21 days, drinking water

SMILES: CC(NC(=O)c1ccc(NS(=O)(=O)c2ccc3[nH]c(=O)[nH]c3c2)cc1)C(=O)N(C)C (stereo not drawn) [BC-1485]
- KIAA0317 mRNA levels (KIAA0317 and PIAS4 mRNA): did not significantly alter
- PIAS4 mRNA levels (KIAA0317 and PIAS4 mRNA): did not significantly alter
- lung hydroxyproline content ([1]; 7, 14 and 21 d after bleomycin): significant decrease
- lung (pulmonary) fibrosis ([1]; bleomycin 0.05 U i.t.): marked decrease
- lung (pulmonary) fibrosis ([1]; bleomycin 0.05 U i.t., listed as BC 1485): inhibition of pulmonary fibrosis
- BAL CXCL1 levels [1, 2]: significantly decreased
- BAL IL-6 levels [1, 2]: significantly decreased
- BAL protein concentrations [1, 2]: significantly decreased
- BAL total cell counts [1, 2]: significantly decreased
- survival ([1]; bleomycin 0.05 U i.t., drinking water): significantly improved
- lung collagen (Mason Trichrome staining) ([1]; bleomycin 0.05 U i.t.): Decreased
- peribronchiolar and parenchymal fibrosis (H&E) ([1]; bleomycin 0.05 U i.t.): substantially decreased
